From US12077503B2, “Substituted cyclic amides and their use as herbicides” (FMC CORPORATION, priority 2015, dated 2024) come the findings set out here.

Format in all cases: in vivo
The subject of test [1] is Kochia (Kochia scoparia). Put plainly: Test A preemergence. The conditions noted are these: Bassia scoparia, pre-emergence, 240 h; for pest or weed control at 125 g/ha: 125 g ai/ha, 0 to 100 scale where 0 is no effect and 100 is complete control; for pest or weed control at 500 g/ha: 500 g ai/ha. The gist of the method:
(§1)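 Ratings of 0 (no effect) to 100 (complete control) come from visual comparison with untreated controls roughly 10 d after treatment. Test chemicals, formulated in a non-phytotoxic solvent mixture with surfactant, were applied either as a preemergence directed soil spray on seeded soil or postemergence to one- to two-leaf plants 2 to 10 cm tall.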

Test [2] has as its system ragweed (common ragweed, Ambrosia elatior). The test can be described thus: Test A preemergence. The conditions noted are these: Ambrosia artemisiifolia, pre-emergence, 240 h; for pest or weed control at 500 g/ha: 500 g ai/ha. The method, boiled down:
as §1

The test system of test [3] is giant foxtail (Setaria faberii). Put plainly: Test A preemergence. To be noted: Setaria faberi, pre-emergence, 240 h; for pest or weed control at 125 g/ha: 125 g ai/ha, 0 to 100 scale where 0 is no effect and 100 is complete control; for pest or weed control at 500 g/ha: 500 g ai/ha. The method, boiled down: as §1
Test [4] concerns pigweed (Amaranthus retroflexus). The test can be described thus: Test A preemergence. The conditions noted are these: Amaranthus retroflexus, pre-emergence, 240 h; for pest or weed control at 125 g/ha: 125 g ai/ha, 0 to 100 scale where 0 is no effect and 100 is complete control; for pest or weed control at 500 g/ha: 500 g ai/ha.
Test [5] deals with barnyardgrass (Echinochloa crus-galli). The test can be described thus: Test A preemergence. The conditions noted are these: Echinochloa crus-galli, pre-emergence, 240 h; for pest or weed control at 125 g/ha: 125 g ai/ha, 0 to 100 scale where 0 is no effect and 100 is complete control; for pest or weed control at 500 g/ha: 500 g ai/ha. The method, boiled down: as §1
For test [6], the system named is ryegrass, Italian (Italian ryegrass, Lolium multiflorum). The test can be described thus: Test A preemergence. To be noted: Lolium multiflorum, pre-emergence, 240 h; for pest or weed control at 500 g/ha: 500 g ai/ha. The gist of the method: as §1
For test [7], the system named is Galium (catchweed bedstraw, Galium aparine). The test can be described thus: Test A postemergence. The conditions noted are these: Galium, post-emergence, 240 h, 125 g ai/ha. The gist of the method:
as §1

The test system of test [8] is Kochia (Kochia scoparia). The test can be described thus: Test A postemergence. The conditions noted are these: Bassia scoparia, post-emergence, 240 h, 125 g ai/ha. The gist of the method:
as §1

Test [9] has as its system ragweed (common ragweed, Ambrosia elatior). Put plainly: Test A postemergence. To be noted: Ambrosia artemisiifolia, post-emergence, 240 h, 125 g ai/ha. The method, boiled down:
as §1

A further test concerns corn (Zea mays). The test can be described thus: Test A postemergence. The conditions noted are these: Zea mays, post-emergence, 240 h, 125 g ai/ha. The method, boiled down:
as §1

Test [10] concerns giant foxtail (Setaria faberii). The test can be described thus: Test A postemergence. To be noted: Setaria faberi, post-emergence, 240 h, 125 g ai/ha. The method, boiled down: as §1
Test [11] deals with pigweed (Amaranthus retroflexus). The test can be described thus: Test A postemergence. The conditions noted are these: Amaranthus retroflexus, post-emergence, 240 h, 125 g ai/ha. The method, boiled down:
as §1

For test [12], the system named is wheat (Triticum aestivum). Put plainly: Test A postemergence. To be noted: Triticum aestivum, post-emergence, 240 h, 125 g ai/ha. The method, boiled down:
as §1

Test [13] deals with barnyardgrass (Echinochloa crus-galli). Put plainly: Test A postemergence. The conditions noted are these: Echinochloa crus-galli, post-emergence, 240 h, 125 g ai/ha. The method, boiled down: as §1
Test [14] deals with ryegrass, Italian (Italian ryegrass, Lolium multiflorum). The test can be described thus: Test A postemergence. The conditions noted are these: Lolium multiflorum, post-emergence, 240 h, 125 g ai/ha. The gist of the method:
as §1

[15] abbreviates: preemergence, read-out: Kochia plant response rating.
[16] abbreviates: preemergence, read-out: Foxtail, Giant plant response rating.
The mark [17] stands for this setting: preemergence, read-out: Pigweed plant response rating.
Where [18] appears, read: preemergence, read-out: Barnyardgrass plant response rating.

Where two headings read alike, the source gives them in different places.

In the case of `CSc1ccccc1NC(=O)[C@H]1C(=O)N(C)C[C@@H]1c1cccc(COC(F)F)c1` [Compound 876], the pest or weed control at 125 g/ha in the test with Kochia (Kochia scoparia) [1] (setting [15]) is 0%; in [2] (125 g ai/ha, preemergence, 0 to 100 scale where 0 is no effect and 100 is complete control, read-out: Ragweed plant response rating) it was 0%; in [3] (setting [16]), 80%; in [4] (setting [17]), 0%; in [5] (setting [18]), 60%; in [6] (125 g ai/ha, preemergence, 0 to 100 scale where 0 is no effect and 100 is complete control, read-out: Ryegrass, Italian plant response rating), 0%. For the same molecule, the pest or weed control at 125 g/ha in test [7] (postemergence, visual injury rating after approximately 10 d, read-out: Galium plant response rating (0 to 100 scale, 0 no effect, 100 complete control)) came to 0%; with Kochia (Kochia scoparia) [8] (postemergence, visual injury rating after approximately 10 d, read-out: Kochia plant response rating (0 to 100 scale, 0 no effect, 100 complete control)) it was 50%; in test [9] (postemergence, visual injury rating after approximately 10 d, read-out: Ragweed plant response rating (0 to 100 scale, 0 no effect, 100 complete control)), 0%; in test [10] (postemergence, visual injury rating after approximately 10 d, read-out: Foxtail, Giant plant response rating (0 to 100 scale, 0 no effect, 100 complete control)), 40%; in test [11] (postemergence, visual injury rating after approximately 10 d, read-out: Pigweed plant response rating (0 to 100 scale, 0 no effect, 100 complete control)), 0%; in [13] (postemergence, visual injury rating after approximately 10 d, read-out: Barnyardgrass plant response rating (0 to 100 scale, 0 no effect, 100 complete control)), 60%. In addition, in [14] (postemergence, visual injury rating after approximately 10 d, read-out: Ryegrass, Italian plant response rating (0 to 100 scale, 0 no effect, 100 complete control)), the pest or weed control at 125 g/ha was 0%. For the same molecule, the pest or weed control at 500 g/ha was 70% in the test with Kochia (Kochia scoparia) [1] (Preemergence, visual injury vs untreated controls after approximately 10 d, read-out: Kochia plant response rating (0 to 100 scale where 0 is no effect and 100 is complete control)); 80% in test [2] (Preemergence, visual injury vs untreated controls after approximately 10 d, read-out: Ragweed plant response rating (0 to 100 scale where 0 is no effect and 100 is complete control)); 100% in [3] (Preemergence, visual injury vs untreated controls after approximately 10 d, read-out: Foxtail, Giant plant response rating (0 to 100 scale where 0 is no effect and 100 is complete control)); 30% in test [4] (Preemergence, visual injury vs untreated controls after approximately 10 d, read-out: Pigweed plant response rating (0 to 100 scale where 0 is no effect and 100 is complete control)); 90% in [5] (Preemergence, visual injury vs untreated controls after approximately 10 d, read-out: Barnyardgrass plant response rating (0 to 100 scale where 0 is no effect and 100 is complete control)); 30% in [6] (Preemergence, visual injury vs untreated controls after approximately 10 d, read-out: Ryegrass, Italian plant response rating (0 to 100 scale where 0 is no effect and 100 is complete control)). Besides, the plant injury at 125 g/ha with corn (Zea mays) (postemergence, visual injury rating after approximately 10 d, read-out: Corn plant response rating (0 to 100 scale, 0 no effect, 100 complete control)) is 0%; in test [12] (postemergence, visual injury rating after approximately 10 d, read-out: Wheat plant response rating (0 to 100 scale, 0 no effect, 100 complete control)) it was 0%.
Regarding `Cc1cc([C@H]2CN(C)C(=O)[C@@H]2C(=O)Nc2ccc(F)cc2F)ccc1Cl` [Compound 930], the pest or weed control at 125 g/ha with Kochia (Kochia scoparia) [1] (setting [15]) is 70%; in test [3] (setting [16]), 90%; in test [4] (setting [17]), 20%; in [5] (setting [18]), 90%; in [7] (Postemergence, visual injury after approximately 10 d, 0 to 100 scale where 0 is no effect and 100 is complete control, read-out: Plant response rating, Galium), 40%; in the test with Kochia (Kochia scoparia) [8] (Postemergence, visual injury after approximately 10 d, 0 to 100 scale where 0 is no effect and 100 is complete control, read-out: Plant response rating, Kochia) it was 20%. For the same molecule, the pest or weed control at 125 g/ha in [9] (Postemergence, visual injury after approximately 10 d, 0 to 100 scale where 0 is no effect and 100 is complete control, read-out: Plant response rating, Ragweed) stood at 0%; in test [10] (Postemergence, visual injury after approximately 10 d, 0 to 100 scale where 0 is no effect and 100 is complete control, read-out: Plant response rating, Foxtail, Giant) it was 80%; in test [11] (Postemergence, visual injury after approximately 10 d, 0 to 100 scale where 0 is no effect and 100 is complete control, read-out: Plant response rating, Pigweed), 30%; in [13] (Postemergence, visual injury after approximately 10 d, 0 to 100 scale where 0 is no effect and 100 is complete control, read-out: Plant response rating, Barnyardgrass), 80%; in test [14] (Postemergence, visual injury after approximately 10 d, 0 to 100 scale where 0 is no effect and 100 is complete control, read-out: Plant response rating, Ryegrass, Italian), 30%. The pest or weed control at 500 g/ha in the test with Kochia (Kochia scoparia) [1] (preemergence, visual injury rating about 10 d after treatment, 0 to 100 scale (0 no effect, 100 complete control), read-out: Kochia plant response rating) was 90%; in [2] (preemergence, visual injury rating about 10 d after treatment, 0 to 100 scale (0 no effect, 100 complete control), read-out: Ragweed plant response rating), 0%; in test [3] (preemergence, visual injury rating about 10 d after treatment, 0 to 100 scale (0 no effect, 100 complete control), read-out: Foxtail, Giant plant response rating), 90%; in [4] (preemergence, visual injury rating about 10 d after treatment, 0 to 100 scale (0 no effect, 100 complete control), read-out: Pigweed plant response rating), 30%; in test [5] (preemergence, visual injury rating about 10 d after treatment, 0 to 100 scale (0 no effect, 100 complete control), read-out: Barnyardgrass plant response rating) it was 90%; in test [6] (preemergence, visual injury rating about 10 d after treatment, 0 to 100 scale (0 no effect, 100 complete control), read-out: Ryegrass, Italian plant response rating), 70%. In addition, the Corn plant response rating (crop injury, 0 = no effect, 100 = complete kill) at 125 g/ha in the test on corn (Zea mays) (Postemergence, visual injury after approximately 10 d, 0 to 100 scale where 0 is no effect and 100 is complete control) turned out to be 40%. Besides, the plant injury at 125 g/ha in test [12] (Postemergence, visual injury after approximately 10 d, 0 to 100 scale where 0 is no effect and 100 is complete control, read-out: Plant response rating, Wheat) amounted to 30%.
